Assays:
Assay in all cases: relative viability (nuclei count vs DMSO), 5 days (fraction); higher = more cells survive
NVP-TAE684 + Luminespib = compound: COc1cc(N2CCC(N3CCN(C)CC3)CC2)ccc1Nc1ncc(Cl)c(Nc2ccccc2S(=O)(=O)C(C)C)n1 [NVP-TAE684] + CCNC(=O)c1noc(-c2cc(C(C)C)c(O)cc2O)c1-c1ccc(CN2CCOCC2)cc1 [Luminespib] (partner 0.01 µM)
Procedure, shortened: (§1)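 After 5 days of treatment, lung cancer cells in 1536-well plates were fixed and stained in a single step (final 0.05% Triton X-100, 1% formaldehyde, 1 ug/ml Hoechst) and their nuclei counted on 4× images. Treatment had been applied by pin tool the day after seeding as one drug alone or as a fixed anchor-drug dose with five library-drug doses (not always all listed) in √10 steps. Relative viability is the nuclei count of treated wells divided by that of vehicle wells, and values are medians of duplicate plates.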

NVP-TAE684 + Bortezomib = compound: COc1cc(N2CCC(N3CCN(C)CC3)CC2)ccc1Nc1ncc(Cl)c(Nc2ccccc2S(=O)(=O)C(C)C)n1 [NVP-TAE684] + CC(C)C[C@H](NC(=O)[C@H](Cc1ccccc1)NC(=O)c1cnccn1)B(O)O [Bortezomib] (partner 0.002 µM)
Procedure, shortened: as §1

NVP-TAE684 + Olaparib = compound: COc1cc(N2CCC(N3CCN(C)CC3)CC2)ccc1Nc1ncc(Cl)c(Nc2ccccc2S(=O)(=O)C(C)C)n1 [NVP-TAE684] + O=C(c1cc(Cc2n[nH]c(=O)c3ccccc23)ccc1F)N1CCN(C(=O)C2CC2)CC1 [Olaparib] (partner 8 µM)
Procedure, shortened: as §1

Vandetanib + OSI-027 = compound: COc1cc2/c(=N/c3ccc(Br)cc3F)nc[nH]c2cc1OCC1CCN(C)CC1 [Vandetanib] + COc1cccc2cc(-c3nc([C@H]4CC[C@H](C(=O)O)CC4)n4ncnc(N)c34)[nH]c12 [OSI-027] (partner 0.5 µM)
Procedure, shortened: as §1

CUDC-101 + Tozasertib = compound: C#Cc1cccc(Nc2ncnc3cc(OC)c(OCCCCCCC(=O)NO)cc23)c1 [CUDC-101] + Cc1cc(Nc2cc(N3CCN(C)CC3)nc(Sc3ccc(NC(=O)C4CC4)cc3)n2)n[nH]1 [Tozasertib] (partner 0.1 µM)
Procedure, shortened: as §1

## UMC-11
NVP-TAE684 + Luminespib; first compound 0.2 µM
  relative viability: 0.879
NVP-TAE684 + Luminespib; first compound 0.6325 µM
  relative viability: 0.946
NVP-TAE684 + Luminespib; first compound 2 µM
  relative viability: 0.297
NVP-TAE684 + Bortezomib; first compound 0.2 µM
  relative viability: 0.642
NVP-TAE684 + Bortezomib; first compound 0.6325 µM
  relative viability: 0.97
NVP-TAE684 + Bortezomib; first compound 2 µM
  relative viability: 0.393
NVP-TAE684 + Olaparib; first compound 0.2 µM
  relative viability: 0.376
NVP-TAE684 + Olaparib; first compound 0.6325 µM
  relative viability: 0.336
NVP-TAE684 + Olaparib; first compound 2 µM
  relative viability: 0.228
Vandetanib + OSI-027; first compound 0.02 µM
  relative viability: 0.472
Vandetanib + OSI-027; first compound 0.06325 µM
  relative viability: 0.416
Vandetanib + OSI-027; first compound 0.2 µM
  relative viability: 0.45
Vandetanib + OSI-027; first compound 0.6325 µM
  relative viability: 0.443
Vandetanib + OSI-027; first compound 2 µM
  relative viability: 0.467
CUDC-101 + Tozasertib; first compound 0.01 µM
  relative viability: 0.193
CUDC-101 + Tozasertib; first compound 0.03162 µM
  relative viability: 0.176
CUDC-101 + Tozasertib; first compound 0.1 µM
  relative viability: 0.193
CUDC-101 + Tozasertib; first compound 0.3162 µM
  relative viability: 0.155
CUDC-101 + Tozasertib; first compound 1 µM
  relative viability: 0.133
